Source: ChEMBL document CHEMBL3879908, “Pyrrolidinone carboxamide derivatives” (2014)
pIC50: −log10 of the molar value.

Biological target: T1, Chemerin-like receptor 1 (Homo sapiens, UniProt Q99788)
T1 sequence (Q99788 whole entry): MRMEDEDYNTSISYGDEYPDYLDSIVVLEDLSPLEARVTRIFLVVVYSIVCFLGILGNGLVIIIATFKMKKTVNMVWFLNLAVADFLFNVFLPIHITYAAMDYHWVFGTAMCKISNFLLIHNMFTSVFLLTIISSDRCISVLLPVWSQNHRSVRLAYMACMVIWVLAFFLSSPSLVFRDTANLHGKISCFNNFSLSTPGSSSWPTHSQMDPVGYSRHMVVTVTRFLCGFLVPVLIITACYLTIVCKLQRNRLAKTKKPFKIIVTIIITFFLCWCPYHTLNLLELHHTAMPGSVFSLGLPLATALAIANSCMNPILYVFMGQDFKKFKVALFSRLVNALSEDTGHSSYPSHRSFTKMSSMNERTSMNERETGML
Test: Displacement of [125I]-chemerin from ChemR23 (unknown origin) transfected in mouse BaF3 cells after 3 hrs by scintillation counting method
Format: cell-based

Row | Compound | pIC50
1 | Cc1cccc(C)c1N1CC(C(=O)Nc2cc(C(F)(F)F)cc(C(F)(F)F)c2)(C2=CCSCC2)CC1=O (stereo unspecified) | ≥ 7.52
2 | Cc1cccc(C)c1N1CC(C(=O)Nc2cc(C(F)(F)F)cc(C(F)(F)F)c2)(C2CCN(C)CC2)CC1=O (stereo unspecified) | 5.22 to 6.52
3 | COCC1(C(=O)Nc2cc(C(F)(F)F)cc(C(F)(F)F)c2)CC(=O)N(c2c(C)cccc2C)C1 (stereo unspecified) | ≥ 7.52
4 | Cc1ccccc1N1CC(C(=O)Nc2cc(C(F)(F)F)cc(C(F)(F)F)c2)(C(C)C)CC1=O (stereo unspecified) | ≥ 7.52
5 | Cc1cccc(C)c1N1CC(CO)(C(=O)Nc2cc(C(F)(F)F)cc(C(F)(F)F)c2)CC1=O (stereo unspecified) | 6.52 to 7.52
6 | CC[C@@]1(C(=O)Nc2cc(C(F)(F)F)cc(C(F)(F)F)c2)CN(c2c(C)cccc2C)C(=O)[C@H]1C | 6.52 to 7.52
7 | Cc1cccc(C)c1N1C[C@@](C)(C(=O)Nc2cc(C(F)(F)F)cc(C(F)(F)F)c2)[C@H](C)C1=O | ≥ 7.52
8 | Cc1cccc(C)c1N1CC(C(=O)Nc2cc(C(F)(F)F)cc(C(F)(F)F)c2)(C2=CCS(=O)(=O)CC2)CC1=O (stereo unspecified) | 6.52 to 7.52
9 | Cc1cccc(C)c1N1C[C@](C)(C(=O)Nc2cc(C(F)(F)F)cc(C(F)(F)F)c2)[C@H](C)C1=O | 6.52 to 7.52
10 | Cc1cccc(C)c1N1CC(C(=O)Nc2cc(C(F)(F)F)cc(C(F)(F)F)c2)(C2=CCN(C)CC2)CC1=O (stereo unspecified) | 6.52 to 7.52
11 | CC[C@@H]1C(=O)N(c2c(C)cccc2C)C[C@]1(C)C(=O)Nc1cc(C(F)(F)F)cc(C(F)(F)F)c1 | 5.22 to 6.52
12 | Cc1cccc(C)c1N1CC(C)(C(=O)Nc2cc(C(F)(F)F)cc(C(F)(F)F)c2)CC1=O (stereo unspecified) | ≥ 7.52
13 | Cc1ccccc1N1CC(C)(C(=O)Nc2cc(C(F)(F)F)cc(C(F)(F)F)c2)CC1=O (stereo unspecified) | ≥ 7.52
14 | CC[C@@H]1C(=O)N(c2c(C)cccc2C)C[C@@]1(C)C(=O)Nc1cc(C(F)(F)F)cc(C(F)(F)F)c1 | ≥ 7.52
15 | CCCC1(C(=O)Nc2cc(C(F)(F)F)cc(C(F)(F)F)c2)CC(=O)N(c2c(C)cccc2C)C1 (stereo unspecified) | ≥ 7.52
16 | Cc1cccc(C)c1N1CC(C(=O)Nc2cc(C(F)(F)F)cc(C(F)(F)F)c2)(C2=CCOCC2)CC1=O (stereo unspecified) | ≥ 7.52
17 | Cc1cccc(C)c1N1CC(CCCO)(C(=O)Nc2cc(C(F)(F)F)cc(C(F)(F)F)c2)CC1=O (stereo unspecified) | 6.52 to 7.52
18 | Cc1cccc(C)c1N1CC(CC(C)C)(C(=O)Nc2cc(C(F)(F)F)cc(C(F)(F)F)c2)CC1=O (stereo unspecified) | ≥ 7.52
19 | Cc1cccc(C)c1N1CC(COCc2ccccc2)(C(=O)Nc2cc(C(F)(F)F)cc(C(F)(F)F)c2)CC1=O (stereo unspecified) | ≥ 7.52
20 | Cc1cc(C)n(C2(C(=O)Nc3cc(C(F)(F)F)cc(C(F)(F)F)c3)CC(=O)N(c3c(C)cccc3C)C2)n1 (stereo unspecified) | ≥ 7.52
21 | Cc1cccc(C)c1N1CC(C(=O)Nc2cc(C(F)(F)F)cc(C(F)(F)F)c2)(C2=CCN(C(=O)OC(C)(C)C)CC2)CC1=O (stereo unspecified) | ≥ 7.52

Second part, the molecule after the results:

Row | pIC50 | Compound
22 | 5.22 to 6.52 | Cc1cccc(C)c1N1CC(C(=O)Nc2cc(C(F)(F)F)cc(C(F)(F)F)c2)(C2=CCNCC2)CC1=O (stereo unspecified)
23 | ≥ 7.52 | CCC1(C(=O)Nc2cc(C(F)(F)F)cc(C(F)(F)F)c2)CC(=O)N(c2c(C)cccc2C)C1 (stereo unspecified)
24 | ≥ 7.52 | Cc1ccccc1N1CC(C)(C(=O)Nc2cc(C(F)(F)F)cc(C(F)(F)F)c2)C(C)C1=O (stereo unspecified)
25 | ≥ 7.52 | Cc1cccc(C)c1N1CC(C(=O)Nc2cc(C(F)(F)F)cc(C(F)(F)F)c2)(C(C)(C)O)CC1=O (stereo unspecified)
26 | ≥ 7.52 | Cc1cccc(C)c1N1CC(C(=O)Nc2cc(C(F)(F)F)cc(C(F)(F)F)c2)(C2CCN(C(=O)OC(C)(C)C)CC2)CC1=O (stereo unspecified)
27 | ≥ 7.52 | C=CCC1C(=O)N(c2c(C)cccc2C)CC1(CC=C)C(=O)Nc1cc(C(F)(F)F)cc(C(F)(F)F)c1 (stereo unspecified)
28 | 6.52 to 7.52 | Cc1cccc(C)c1N1C[C@@](CN2CCC(F)CC2)(C(=O)Nc2cc(C3CC3)cc(C(F)(F)F)c2)[C@H](C)C1=O
29 | 6.52 to 7.52 | Cc1cccc(C)c1N1CC(O)(C(=O)Nc2cc(C(F)(F)F)cc(C(F)(F)F)c2)CC1=O (stereo unspecified)
30 | 6.52 to 7.52 | CC[C@@]1(C(=O)Nc2cc(C(F)(F)F)cc(C(F)(F)F)c2)CN(c2c(C)cccc2C)C(=O)[C@@H]1C
31 | ≥ 7.52 | Cc1cccc(C)c1N1CC(C(=O)Nc2cc(C(F)(F)F)cc(C(F)(F)F)c2)(C2CCOCC2)CC1=O (stereo unspecified)
